Measured values as given in patent US10202347B2, “Compound, production method therefor, and use of said compound” (MICROBIAL CHEMISTRY RESEARCH FOUNDATION, priority 2013, dated 2019).
≈ marks a conversion by molar mass, not a printed value. Like-named read-outs stand apart in the source and are kept apart here.

Key:
[1] = tested on: Helicobacter pylori JCM12093 strain; experiment: Measurement of MIC for Helicobacter pylori JCM12093; type: cell-based; conditions: Helicobacter pylori, JCM12093; HP medium, 144 hours, 37° C., microaerobic; read-out: MIC Helicobacter pylori JCM 12093
Method: (§1) Each of the above compounds was measured for minimum inhibitory concentration (MIC) for Helicobacter pylori.
(§2) Helicobacter pylori JCM12093 strain and H. pylori JCM12095 strain each were statically cultured in a HP medium (brain heart infusion broth (product of Becton, Dickinson Co.) supplemented with 10% fetal bovine serum (product of Life Technologies Co.)) for 144 hours at 37° C. under microaerobic culture conditions (microaerobic conditions (N2:O2:CO2=85:5:10)).
(§3) After completion of the culturing, the culture was suspended with the HP medium and diluted so that Helicobacter pylori was 2×10^6 CFU/mL to 9×10^6 CFU/mL.
(§4) Each of the test samples (each of the above compounds, clarithromycin, and ampicillin) was prepared with the HP medium to have a concentration of 256 mg/L. From this concentration, the test sample was 2-fold diluted serially in 15 steps to 0.0078 mg/L.
(§5) The above-diluted culture was added at 50 μL/well to 50 μL/well of the HP medium containing each of the test samples at the above concentrations, and was statically cultured for 144 hours at 37° C. under microaerobic culture conditions (microaerobic conditions (N2:O2:CO2=85:5:10)). After completion of the culturing, the presence or absence of proliferation of each bacterium was visually determined based on turbidity, and the MIC for each bacterial strain was obtained.

[2] = tested on: H. pylori JCM12095 strain; experiment: Measurement of MIC for H. pylori JCM12095; type: cell-based; conditions: Helicobacter pylori, JCM12095; HP medium, 144 hours, 37° C., microaerobic; read-out: MIC H. pylori JCM 12095
Method: as §1, §2, §3, §4, §5

[3] = tested on: Staphylococcus aureus FDA209P strain; experiment: Measurement of MIC for Staphylococcus aureus; type: cell-based; conditions: nutrient broth medium, 37° C. overnight, read-out: MIC Staphylococcus aureus FDA209P
Method: (§6) Each of the above compounds was measured for minimum inhibitory concentration (MIC) for Staphylococcus aureus and Escherichia coli.
(§7) Staphylococcus aureus FDA209P strain and Escherichia coli K-12 strain each were cultured under shaking in a nutrient broth medium (polypeptone (product of NIHON PHARMACEUTICAL Co.) 1%, fish extract for bacteria (product of KYOKUTO PHARMACEUTICAL INDUSTRIAL Co.) 1%, and sodium chloride 0.2%) at 37° C. overnight.
(§8) After completion of the culturing, the culture was diluted with the nutrient broth medium so that the bacteria were 2×10^6 CFU/mL to 9×10^6 CFU/mL.
(§9) Each of the test samples (each of the above compounds, clarithromycin, and ampicillin) was prepared with the nutrient broth medium to have a concentration of 256 mg/L. From this concentration, the test sample was 2-fold diluted serially in 11 steps to 0.125 mg/L.
as §5, with “nutrient broth” for “HP”, “cultured” for “cultured for 144 hours”, “overnight.” for “under microaerobic culture conditions (microaerobic conditions (N2:O2:CO2=85:5:10)).”

[4] = tested on: Enterococcus faecalis JCM5803 strain; experiment: Measurement of MIC for Enterococcus faecalis; type: cell-based; conditions: JCM5803, heart infusion broth medium, 37° C., 18 hours, read-out: MIC Enterococcus faecalis JCM5803
Method: Each of the above compounds was measured for minimum inhibitory concentration (MIC) for Enterococcus faecalis.
Enterococcus faecalis JCM5803 strain was cultured under shaking in a heart infusion broth medium (product of Becton, Dickinson Co.) at 37° C. overnight.
After completion of the culturing, the culture was diluted with the heart infusion broth medium so that the bacteria were 2×10^4 CFU/mL to 9×10^4 CFU/mL.
Each of the test samples (each of the above compounds, clarithromycin, and ampicillin) was prepared with the heart infusion broth medium to have a concentration of 256 mg/L. From this concentration, the test sample was 2-fold diluted serially in 11 steps to 0.125 mg/L.
The above-diluted culture was added at 50 μL/well to 50 μL/well of the heart infusion broth medium containing each of the test samples at the above concentrations, and was statically cultured at 37° C. for 18 hours.
(§10) After completion of the culturing, the presence or absence of proliferation of each bacterium was visually determined based on turbidity, and the MIC for each bacterial strain was obtained.

[5] = tested on: Escherichia coli K-12 strain; experiment: Measurement of MIC for Escherichia coli; type: cell-based; conditions: K12STRAIN, nutrient broth medium, 37° C. overnight, read-out: MIC Escherichia coli K-12
Method: as §6, §7, §8, §9
as §5, with “nutrient broth” for “HP”, “cultured” for “cultured for 144 hours”, “overnight.” for “under microaerobic culture conditions (microaerobic conditions (N2:O2:CO2=85:5:10)).”

[6] = tested on: Haemophilus influenza T-196 strain; experiment: Measurement of MIC for Haemophilus influenza T-196; type: cell-based; conditions: HI medium, 18 hours, 37° C., 5% carbon dioxide; read-out: MIC Haemophilus influenzae T-196
Method: (§11) Each of the above compounds was measured for minimum inhibitory concentration (MIC) for Haemophilus influenza.
(§12) Haemophilus influenza T-196 strain and H. influenza ARD476 strain each were statically cultured in a HI medium (Muller Hinton medium (product of Becton, Dickinson Co.) supplemented with 5% Fildes enrichment (product of Becton, Dickinson Co.)) at 37° C. overnight under aerobic conditions containing 5% carbon dioxide gas.
(§13) After completion of the culturing, the culture was suspended with the HI medium and diluted so that each Haemophilus influenza strain was 2×10^6 CFU/mL to 9×10^6 CFU/mL.
(§14) Each of the test samples (each of the above compounds, clarithromycin, and ampicillin) was prepared with the HI medium to have a concentration of 256 mg/L. From this concentration, the test sample was 2-fold diluted serially in 11 steps to 0.125 mg/L.
(§15) The above-diluted culture was added at 50 μL/well to 50 μL/well of the HI medium containing each of the test samples at the above concentrations, and was statically cultured for 18 hours at 37° C. under aerobic conditions containing 5% carbon dioxide gas.
as §10

[7] = tested on: H. influenza ARD476 strain; experiment: Measurement of MIC for H. influenza ARD476; type: cell-based; conditions: Haemophilus influenzae, ARD476STRAIN; HI medium, 18 hours, 37° C., 5% carbon dioxide; read-out: MIC H. influenzae ARD476
Method: as §11, §12, §13, §14, §15, §10

[8] = tested on: human stomach cancer cells MKN-74; experiment: Cell proliferation test, monoculture test (GFP fluorescence); type: cell-based; conditions: monoculture test, MKN-74 alone, cell proliferation rate, average of duplicate, read-out: Mono IC50
Method: (§16) Human stomach cancer cells MKN-74 (Riken Cell Bank) were cultured at 37° C. and 5% CO2 in DMEM supplemented with 10% FBS (product of GIBCO Co.), 100 units/mL penicillin G (product of Invitrogen Co.), and 100 μg/mL streptomycin (product of Invitrogen Co.).
(§17) The above cancer cells were allowed to undergo gene transfer of Green fluorescence protein (GFP) expression vector, pEGFP-C1 (product of BD Biosciences Co.) using the Lipofectamine reagent (product of Invitrogen Co.), to thereby clone cells stably expressing GFP.
(§18) Only DMEM containing 1% dialyzed serum, 5 μg/mL insulin, 5 μg/mL transferrine (product of Wako Pure Chemical Industries Co.), and 1.4 μM hydrocortisone (product of Sigma Co.) was placed in a 96-well plate at 0.1 mL/well, and respective evaluation samples (the compounds expressed by Structural Formulas (1) to (13)) were added thereto at respective concentrations, followed by maintaining at 37° C. and 5% CO2 for 2 days.
Next, the above human stomach cancer cells MKN-74 were dispersed in DMEM at 5×10^5 cells/mL, and were placed in the above plate at 10 μL/well, followed by further coculturing at 37° C. and 5% CO2 for 3 days.
(§19) Measurement of cell proliferation rates in the above coculture test and monoculture test was performed in the following manner.
(§20) The medium was removed from the wells of the above plate, and a cytolysis liquid (10 mM Tris-HCl [pH 7.4], 150 mM NaCl, 0.9 mM CaCl2, and 1% Triton X-100) was added thereto at 0.1 mL/well to lyse the cells. The fluorescence intensity of GFP was measured at an excitation wavelength of 485 nm and a fluorescence wavelength of 538 nm, and the cell proliferation rates were calculated from the following formula. Cell proliferation rate (%)=(Fluorescence intensity in the presence of the evaluation sample/Fluorescence intensity in the absence of the evaluation sample)×100

[9] = tested on: human stomach cancer cells MKN-74 cocultured with normal stromal cells derived from the human stomach, Hs738; experiment: Cell proliferation test, coculture test with normal stromal cells Hs738 (GFP fluorescence); type: cell-based; conditions: coculture test, MKN-74 with stromal cells Hs738, cell proliferation rate, average of duplicate, read-out: Cocul IC50
Method: as §16, §17
Normal stromal cells derived from the human stomach, Hs738 ((CRL-7869), ATCC) were cultured at 37° C. and 5% CO2 in DMEM supplemented with 10% FBS, 100 units/mL penicillin G (product of Invitrogen Co.), 100 μg/mL streptomycin (product of Invitrogen Co.), 5 μg/mL insulin, 5 μg/mL transferrin (product of Wako Pure Chemical Industries Co.), 1.4 μM hydrocortisone (product of Sigma Co.), and […] basic-FGF (product of Pepro Tech Co.).
as §18, with “The above normal stromal cells derived from the human stomach, Hs738 were dispersed at 5×10^4 cells/mL in” for “Only”, “Co.), and were” for “Co.) was”, “mL/well. Respective” for “mL/well, and respective”, “culturing” for “maintaining”
Next, the above human stomach cancer cells MKN-74 were dispersed in DMEM at 5×10^5 cells/mL, and were placed at 10 μL/well in the plate in which the above normal stromal cells derived from the human stomach, Hs738 had been cultured, followed by further coculturing at 37° C. and 5% CO2 for 3 days.
as §19, §20

[10] = Acute toxicity test (maximum tolerated dose); conditions: female, ICR, mouse, in vivo, iv
Description: ICR mice (female, 4 weeks old, product of Charles River Co.) were bred under the SPF conditions.
One half of the administration dose at which the mice were recognized to be dead or have serious toxicity for the observation period of 2 weeks was defined as the maximum tolerated dose (MTD) in the present experiment.

SMILES	MIC [1] [µg/mL]	MIC [2] [µg/mL]	MIC [3] [µg/mL]	MIC [4] [µg/mL]	MIC [5] [µg/mL]	MIC [6] [µg/mL]	MIC [7] [µg/mL]	IC50 [8] [µg/mL]	IC50 [9] [µg/mL]	MTD at 2 weeks ([10]; MTD) [mg/kg]	MTD at 2 weeks ([10]; intravenous administration, ICR mice, observed for 2 weeks, one half of the dose with death or serious toxicity, read-out: MTD) [mg/kg]
CC1(C)S[C@@H]2[C@H](NC(=O)[C@H](N)c3ccccc3)C(=O)N2[C@H]1C(=O)O [ABPC, ampicillin, reference compound]	0.25 (≈ 0.715 µM)	0.13 (≈ 0.372 µM)	< 0.125	0.5 (≈ 1.43 µM)	4 (≈ 11.4 µM)	0.5 (≈ 1.43 µM)	64 (≈ 183 µM)				
CC[C@H]1OC(=O)[C@H](C)[C@@H](O[C@H]2C[C@@](C)(OC)[C@@H](O)[C@H](C)O2)[C@H](C)[C@@H](O[C@@H]2O[C@H](C)C[C@H](N(C)C)[C@H]2O)[C@](C)(OC)C[C@@H](C)C(=O)[C@H](C)[C@@H](O)[C@]1(C)O [Clarithromycin, clarithromycin, reference compound]	0.008 (≈ 0.0107 µM)	0.008 (≈ 0.0107 µM)	< 0.125	0.5 (≈ 0.668 µM)	16 (≈ 21.4 µM)	8 (≈ 10.7 µM)	4 (≈ 5.35 µM)				
CCCCCCCCc1nc2ccccc2c(OCC(=O)OC)c1C [Structural Formula (1)]								28.1	0.35	≥ 50	
CCCCCCCCc1c(C)c(=O)c2ccccc2n1C#N [Structural Formula (7)]								> 100	0.007	6.25	
CCCCCCCCc1c(C)c(=O)c2ccccc2n1CC(=O)SC [Structural Formula (9)]								5.84	1.4	≥ 50	
CCCCCCCCc1c(C)c(=O)c2ccccc2n1CNC(=O)SC [Structural Formula (10)]								7.57	0.27		≥ 50
